Our source for the ring closure, yield after HPLC values is patent US20240018161A1, “MODULATORS OF CYSTIC FIBROSIS TRANSMEMBRANE CONDUCTANCE REGULATOR” (VERTEX PHARMACEUTICALS INCORPORATED, priority 2020, published 2024).

Read-outs that look alike come from different tables or passages of the source.

Setting [1] is: from Cc1cccc(C)c1-c1cc(OCC2c3ccc(C(C)(C)C)cc3CNC2C)nc(NS(=O)(=O)c2cccc(C(=O)O)c2)n1, amide bond, 14-membered ring, HATU/TEA, DMF, 44.8 mM, 50.0 °C, 0.5 h, 2 steps.
[2] abbreviates: from Cc1cccc(C)c1-c1cc(Cl)nc(NS(=O)(=O)c2cccc(C(=O)N3CCN(C(C)C(C)(C)C)C[C@@H](O)C3)c2)n1, snar bond, 13-membered ring, NaH, DMF, 31.4 mM, 0.0 °C, 7.0 h.

`Cc1cccc(C)c1-c1cc2nc(n1)NS(=O)(=O)c1cccc(c1)C(=O)N1Cc3cc(C(C)(C)C)ccc3C(CO2)C1C` (single isomer, unassigned; enantiomer 2) came in with a ring closure, yield after HPLC under setting [1] of 1%.

For the molecule `Cc1cccc(C)c1-c1cc2nc(n1)NS(=O)(=O)c1cccc(c1)C(=O)N1CCN(C(C)C(C)(C)C)C[C@H](C1)O2` (single isomer, unassigned; diastereomer 2), the ring closure, yield after HPLC under setting [2] was 33%.

Molecule `Cc1cccc(C)c1-c1cc2nc(n1)NS(=O)(=O)c1cccc(c1)C(=O)N1CCOC[C@@H]1C(Cc1ccccc1)O2` (stereo partly drawn) came in with a ring closure, yield after HPLC (from Cc1cccc(C)c1-c1cc(OC(Cc2ccccc2)[C@H]2COCCN2)nc(NS(=O)(=O)c2cccc(C(=O)O)c2)n1, amide bond, 13-membered ring, HATU/DIEA, DMF, 61.0 mM, 25.0 °C, 1.5 h) of 74%.

As to `Cc1cccc(C)c1-c1cc2nc(n1)NS(=O)(=O)c1cccc(c1)C(=O)N1CC3CCCN(C)C3C(C1)O2` (stereo not drawn), where the note is “from 3-[[4-(2,6-dimethylphenyl)-6-[(1-methyl-3,4,4a,5,6,7,8,8a-octahydro-2H-1,6-naphthyridin-8-yl)oxy]pyrimidin-2-yl]sulfamoyl]benzoic acid (Dihydrochloride salt), amide bond, 13-membered ring, HATU/DIEA, 25.0 °C”, the ring closure, yield after HPLC is 19%.

As to `Cc1cccc(C)c1-c1cc2nc(n1)NS(=O)(=O)c1cccc(c1)C(=O)N1Cc3cc(C(C)(C)C)ccc3C(CO2)C1C` (single isomer, unassigned; enantiomer 1), the ring closure, yield after HPLC under setting [1] was 2%.

`Cc1cccc(C)c1-c1cc2nc(n1)NS(=O)(=O)c1cccc(c1)C(=O)N1CC(O2)c2ccccc2C1CC(C)C` (stereo not drawn) registered a ring closure, yield after HPLC (from Cc1cccc(C)c1-c1cc(OC2CNC(CC(C)C)c3ccccc32)nc(NS(=O)(=O)c2cccc(C(=O)O)c2)n1, amide bond, 13-membered ring, HATU/DIEA, DMF, 256.0 mM, 1.0 h) of 8%.

As to `Cc1cccc(C)c1-c1cc2nc(n1)NS(=O)(=O)c1cccc(c1)C(=O)N1CC(O2)C2CCCN(C)C2C1` (stereo not drawn), the ring closure, yield after HPLC (from Cc1cccc(C)c1-c1cc(OC2CNCC3C2CCCN3C)nc(NS(=O)(=O)c2cccc(C(=O)O)c2)n1, amide bond, 13-membered ring, HATU/DIEA, DMF, 27.2 mM, 25.0 °C, 0.67 h) came to 10%.

Consider `Cc1cccc(C)c1-c1cc2nc(n1)NS(=O)(=O)c1cccc(c1)C(=O)N1CC[C@H](C1)O2` [Compound 214, (3R)-17-(2,6-Dimethylphenyl)-2-oxa-13λ^6-thia-6,14,16,19-tetraazatetracyclo[13.3.1.13,6.18,12]henicosa-1(19),8(20),9,11,15,17-hexaene-7,13,13-trione], for which, for the setting “from Cc1cccc(C)c1-c1cc(O[C@@H]2CCNC2)nc(NS(=O)(=O)c2cccc(C(=O)O)c2)n1, amide bond, 13-membered ring, HATU/TEA, DMF, 56.8 mM, 25.0 °C, 1.0 h”, the ring closure, yield after HPLC worked out at 17%.

The molecule `Cc1cccc(C)c1-c1cc2nc(n1)NS(=O)(=O)c1cccc(c1)C(=O)N1Cc3cc(C(F)(F)F)ccc3[C@H](O2)[C@H]1CC(C)C` registered a ring closure, yield after HPLC (from Cc1cccc(C)c1-c1cc(O[C@H]2c3ccc(C(F)(F)F)cc3CN[C@@H]2CC(C)C)nc(NS(=O)(=O)c2cccc(C(=O)O)c2)n1, amide bond, 13-membered ring, HATU/NaOtBu, DMF/THF, 0.25 h, 3 steps) of 5%.

For `Cc1cccc(C)c1-c1cc2nc(n1)NS(=O)(=O)c1cccc(c1)C(=O)N1CCCC(O2)C1CC(C)C` (stereo not drawn), the ring closure, yield after HPLC runs as follows: (from Cc1cccc(C)c1-c1cc(Cl)nc(NS(=O)(=O)c2cccc(C(=O)N3CCCC(O)C3CC(C)C)c2)n1, snar bond, 13-membered ring, NaH, DMF, 17.2 mM, 25.0 °C, 40.0 h) 17%; (from Cc1cccc(C)c1-c1cc(Cl)nc(NS(=O)(=O)c2cccc(C(=O)N3CCCC(O)C3CC(C)C)c2)n1, snar bond, 13-membered ring, NaH, DMF, 18.3 mM, 25.0 °C, 24.0 h) 24%.

Turning to `Cc1cccc(C)c1-c1cc2nc(n1)NS(=O)(=O)c1cccc(c1)C(=O)N1CC(CC(c3ccccc3)C1)O2` (single isomer, unassigned; diastereomer 1), the ring closure, yield after HPLC (from 3-[[4-(2,6-dimethylphenyl)-6-[(5-phenyl-3-piperidyl)oxy]pyrimidin-2-yl]sulfamoyl]benzoic acid (hydrochloride salt), diastereomer 1, amide bond, 13-membered ring, HATU/DIEA, DMF, 37.8 mM, 25.0 °C, 3 steps) worked out at 1%.

`Cc1cccc(C)c1-c1cc2nc(n1)NS(=O)(=O)c1cccc(c1)C(=O)N1CCN(C(=O)OCc3ccccc3)CC(O2)[C@H]1C` (single isomer, unassigned; diastereomer 2) showed a ring closure, yield after HPLC (from Cc1cccc(C)c1-c1cc(Cl)nc(NS(=O)(=O)c2cccc(C(=O)N3CCN(C(=O)OCc4ccccc4)CC(O)[C@H]3C)c2)n1, snar bond, 13-membered ring, NaH, DMF, 30.1 mM, 0.0 °C, 1.5 h) of 7%.

`Cc1cccc(C)c1-c1cc2nc(n1)NS(=O)(=O)c1cccc(c1)C(=O)N1CCN(C(C)C(C)(C)C)C[C@H](C1)O2` (single isomer, unassigned; diastereomer 1) came in with a ring closure, yield after HPLC under setting [2] of 36%.

Molecule “12-(2,6-dimethylphenyl)-23-(2-methylpropyl)-15-oxa-8λ^6-thia-1,9,11,25-tetraazapentacyclo[14.7.1.13,7.110,14.017,22]hexacosa-3(26),4,6,10(25),11,13,17,19,21-nonaene-2,8,8-trione, major diastereomer” registered a ring closure, yield after HPLC (amide bond, 13-membered ring, HATU/DIEA, DMF, 115.0 mM) of 53%.

Turning to `Cc1cccc(C)c1-c1cc2nc(n1)NS(=O)(=O)c1cccc(c1)C(=O)N1CC(CCC1c1ccccc1)O2` (stereo not drawn), the ring closure, yield after HPLC was 37% (from Cc1cccc(C)c1-c1cc(OC2CCC(c3ccccc3)NC2)nc(NS(=O)(=O)c2cccc(C(=O)O)c2)n1, amide bond, 13-membered ring, HATU/DIEA, DMF, 156.0 mM, 25.0 °C, 0.083 h, 3 steps) and 7% (from Cc1cccc(C)c1-c1cc(OC2CCC(c3ccccc3)NC2)nc(NS(=O)(=O)c2cccc(C(=O)Oc3c(F)c(F)c(F)c(F)c3F)c2)n1, amide bond, 13-membered ring, thermal (OPfp ester), NMP, 36.0 mM, 130.0 °C, 1.0 h, 4 steps).

Take `Cc1cccc(C)c1-c1cc2nc(n1)NS(=O)(=O)c1cccc(c1)C(=O)N1CC(CC(c3ccccc3)C1)O2` (single isomer, unassigned; diastereomer 2): under “from 3-[[4-(2,6-dimethylphenyl)-6-[(5-phenyl-3-piperidyl)oxy]pyrimidin-2-yl]sulfamoyl]benzoic acid (hydrochloride salt), diastereomer 2, amide bond, 13-membered ring, HATU/DIEA, DMF, 61.9 mM, 25.0 °C, 3 steps”, the ring closure, yield after HPLC came out at 31%.
